The values that follow come from patent publication US11753407B2, “Compounds for treating spinal muscular atrophy” (PTC Therapeutics, Inc., priority 2012, dated 2023).

One may read the melting point as the temperature of the solid-liquid transition.

In data set [1] the test system is SMN2 minigene mRNA (SMN2-A minigene) in HEK293H cells. Nature of the data set: SMN2 minigene mRNA splicing RT-qPCR assay in cultured cells. It is filed as cell-based, human. The note with it: Homo sapiens, HEK293-H; concentration increasing full length SMN2 mRNA 1.5-fold relative to vehicle-treated cells; HEK293H cells with SMN2-A minigene, 24 hours, 7-point concentration data; read-out: EC1.5x for production of full length SMN2 mRNA. The essentials: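 Read-out: minigene-specific full-length (exon 7-included) SMN2 mRNA by one-step multiplex RT-qPCR, normalized to GAPDH and divided by vehicle-treated level. Stable SMN2-A minigene HEK293H cells, 24 h compound exposure, 7 concentrations in duplicate. EC1.5× = concentration raising FL mRNA 1.5-fold.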

Data set [2] deals with Smn protein in SMA patient fibroblast cells (GM03813). Nature of the data set: Smn protein assay in cultured cells (SMN HTRF). Type of data set: cell-based, human. The note with it: SMA patient fibroblast cells, 48 hours; for EC1.5x for Smn protein expression: 7-point concentration curve, SMN HTRF, concentration producing 1.5 times Smn protein vs DMSO vehicle control; for maximum fold (Fold) increase of Smn protein: 7-point concentration data, fold relative to vehicle control. The method, boiled down: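 Read-out: HTRF 665/620 nm ratio, blank-subtracted as ΔF, then expressed as fold over DMSO vehicle. Fibroblasts from SMA patients were exposed to compounds for 48 h (7 points, 3.16-fold steps, triplicates). Values are EC1.5× and maximum fold Smn increase.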
On the technique in general: In TR-FRET formats the signal depends on donor and acceptor labels being close together.

As for `COc1ccc(-c2cc(=O)n3cc(N4CCN[C@@H](C)C4)cc(C)c3n2)cc1F` [Compound 327, 2-(3-fluoro-4-methoxyphenyl)-9-methyl-7-[(3S)-3-methylpiperazin-1-yl]-4H-pyrido[1,2-a]pyrimidin-4-one], the melting point lay in the range of 198 to 202 °C. For the same compound, the EC (1.5-fold increase) in data set [1] was less than 0.1 µM. In addition, in data set [2], the “EC1.5x for Smn protein expression” value is listed as “**** (an EC1.5x≤0.3 μM is indicated by four stars (****))”; the “maximum fold (Fold) increase of Smn protein” value (from here on “maximum fold (Fold) increase”) was “**** (a fold increase between >1.5 and ≤1.65 is indicated by four stars (****))”.
For `COc1cccc(-c2cc(=O)n3cc(N4C[C@@H](C)N[C@@H](C)C4)ccc3n2)c1` [Compound 25, 7-[(3R,5S)-3,5-dimethylpiperazin-1-yl]-2-(3-methoxyphenyl)-4H-pyrido[1,2-a]pyrimidin-4-one], the melting point fell in the range of 189 to 191 °C. The EC (1.5-fold increase) in data set [1] was in the range of 1 to 3 µM. For the same compound, the “maximum fold (Fold) increase” value in data set [2] is listed as “* (A maximum fold increase of ≤1.2 is indicated by one star (*))”.
For `COc1ccc(-c2cc(=O)n3cc(C4CCN(C)CC4)ccc3n2)cc1OC` [Cpd 164, 2-(3,4-dimethoxyphenyl)-7-(1-methylpiperidin-4-yl)-4H-pyrido[1,2-a]pyrimidin-4-one], the melting point lay within 181 to 183 °C. Further, the EC (1.5-fold increase) in data set [1] is 0.3 to 1 µM. In data set [2], the “EC1.5x for Smn protein expression” value is “** (an EC1.5× between >1 μM and ≤3 μM is indicated by two stars (**))”; the “maximum fold (Fold) increase” value is “**** (a fold increase between >1.5 and ≤1.65 is indicated by four stars (****))”.
Compound `Cc1cn2nc(-c3cc(=O)n4cc(N5CC[C@H](CN(C)C)C5)ccc4n3)cc2c(C)n1` [Compound 799, 7-{(3R)-3-[(dimethylamino)methyl]pyrrolidin-1-yl}-2-(4,6-dimethylpyrazolo[1,5-a]pyrazin-2-yl)-4H-pyrido[1,2-a]pyrimidin-4-one] showed a melting point of 229 to 231 °C. Also, the EC (1.5-fold increase) in data set [1] is less than 0.1 µM. In addition, in data set [2], the “EC1.5x for Smn protein expression” value was “**** (an EC1.5x≤0.3 μM is indicated by four stars (****))” and the “maximum fold (Fold) increase” value is “***** (a fold increase >1.65 is indicated by five stars (*****))”.
The compound `Cc1nc2ccc(-c3cc(=O)n4cc(C5=CCN(C)CC5)ccc4n3)cc2o1` [Compound 303, 2-(2-methyl-1,3-benzoxazol-6-yl)-7-(1-methyl-1,2,3,6-tetrahydropyridin-4-yl)-4H-pyrido[1,2-a]pyrimidin-4-one] displayed a melting point of 132 to 135 °C. Further, the EC (1.5-fold increase) in data set [1] was less than 0.1 µM. In data set [2], the “EC1.5x for Smn protein expression” value is “**** (an EC1.5x≤0.3 μM is indicated by four stars (****))”; the “maximum fold (Fold) increase” value was “**** (a fold increase between >1.5 and ≤1.65 is indicated by four stars (****))”.
`O=c1cc(-c2cnc3[nH]ccc3c2)nc2ccc(N3CCNCC3)cn12` [Cpd 128, 7-(piperazin-1-yl)-2-(1H-pyrrolo[2,3-b]pyridin-5-yl)-4H-pyrido[1,2-a]pyrimidin-4-one] yielded a melting point of 252 to 255 °C. For the same compound, the EC (1.5-fold increase) in data set [1] was in the range of 0.3 to 1 µM. In addition, in data set [2], the “maximum fold (Fold) increase” value is “*** (a fold increase between >1.35 and ≤1.5 is indicated by three stars (***))”.
As for `CCN1CCC(c2ccc3nc(-c4ccc5nc(C)oc5c4)cc(=O)n3n2)CC1` [Compound 501, 7-(1-ethylpiperidin-4-yl)-2-(2-methyl-1,3-benzoxazol-6-yl)-4H-pyrimido[1,2-b]pyridazin-4-one], the melting point lay in the range of 284 to 286 °C. In addition, the EC (1.5-fold increase) in data set [1] lay within 0.1 to 0.3 µM. Moreover, in data set [2], the “EC1.5x for Smn protein expression” value was “*** (an EC1.5× between >0.3 μM and ≤1 μM is indicated by three stars (***))”; the “maximum fold (Fold) increase” value is recorded as “***** (a fold increase >1.65 is indicated by five stars (*****))”.
Consider `COc1ccc(-c2cc(=O)n3cc(N4CCC(CN5CCCCC5)CC4)ccc3n2)cc1OC` [Compound 575, 2-(3,4-dimethoxyphenyl)-7-[4-(piperidin-1-ylmethyl)piperidin-1-yl]-4H-pyrido[1,2-a]pyrimidin-4-one], for which the melting point fell in the range of 184 to 186 °C. In data set [1], the EC (1.5-fold increase) is 0.3 to 1 µM. Further, the “maximum fold (Fold) increase” value in data set [2] was “*** (a fold increase between >1.35 and ≤1.5 is indicated by three stars (***))”.
`Cc1cn2cc(-c3cc(=O)n4cc(C5CCN(C)CC5)ccc4n3)cc(Cl)c2n1` [Compound 517, 2-(8-chloro-2-methylimidazo[1,2-a]pyridin-6-yl)-7-(1-methylpiperidin-4-yl)-4H-pyrido[1,2-a]pyrimidin-4-one] displayed a melting point of 292 to 296 °C. For the same compound, in data set [1], the EC (1.5-fold increase) is less than 0.1 µM. Besides, in data set [2], the “EC1.5x for Smn protein expression” value was “**** (an EC1.5x≤0.3 μM is indicated by four stars (****))” and the “maximum fold (Fold) increase” value is “***** (a fold increase >1.65 is indicated by five stars (*****))”.
`O=c1cc(-c2ccc3c(c2)OCCO3)nc2ccc(N3CCCNCC3)cn12` [Compound 38, 7-(1,4-diazepan-1-yl)-2-(2,3-dihydro-1,4-benzodioxin-6-yl)-4H-pyrido[1,2-a]pyrimidin-4-one]: the melting point was in the range of 180 to 182 °C. For the same compound, in data set [1], the EC (1.5-fold increase) was in the range of 3 to 30 µM. Moreover, the “maximum fold (Fold) increase” value in data set [2] was “* (A maximum fold increase of ≤1.2 is indicated by one star (*))”.
For `O=c1cc(-c2ccccc2)nc2ccc(N3CCNCC3)cn12` [Compound 33, 2-phenyl-7-(piperazin-1-yl)-4H-pyrido[1,2-a]pyrimidin-4-one] the same measures were 151 to 153 °C, 1 to 3 µM and “* (A maximum fold increase of ≤1.2 is indicated by one star (*))”.
On to `Cn1ncc2cc(-c3cc(=O)n4cc(C5=CCNCC5)ncc4n3)ccc21` [Compound 505, 2-(1-methyl-1H-indazol-5-yl)-7-(1,2,3,6-tetrahydropyridin-4-yl)-4H-pyrazino[1,2-a]pyrimidin-4-one], for which the melting point was in the range of 228 to 230 °C. Besides, the EC (1.5-fold increase) in data set [1] is less than 0.1 µM. In data set [2], the “EC1.5x for Smn protein expression” value is reported as “**** (an EC1.5x≤0.3 μM is indicated by four stars (****))”; the “maximum fold (Fold) increase” value was “**** (a fold increase between >1.5 and ≤1.65 is indicated by four stars (****))”.
`CCCN1CC=C(c2cc(C)c3nc(-c4ccc(OC)c(OC)c4)cc(=O)n3c2)CC1` [Compound 378, 2-(3,4-dimethoxyphenyl)-9-methyl-7-(1-propyl-1,2,3,6-tetrahydropyridin-4-yl)-4H-pyrido[1,2-a]pyrimidin-4-one] displayed a melting point of 171 to 177 °C. In addition, in data set [1], the EC (1.5-fold increase) is less than 0.1 µM. Further, in data set [2], the “EC1.5x for Smn protein expression” value is “** (an EC1.5× between >1 μM and ≤3 μM is indicated by two stars (**))”; the “maximum fold (Fold) increase” value is “**** (a fold increase between >1.5 and ≤1.65 is indicated by four stars (****))”.
`COc1ccc(-c2cc(=O)n3cc(N4CCNCC4)ccc3n2)cc1C` [Compound 149, 2-(4-methoxy-3-methylphenyl)-7-(piperazin-1-yl)-4H-pyrido[1,2-a]pyrimidin-4-one]: the melting point was in the range of 198 to 203 °C. Also, the EC (1.5-fold increase) in data set [1] lay within 0.3 to 1 µM. The “maximum fold (Fold) increase” value in data set [2] was “** (a fold increase between >1.2 and ≤1.35 is indicated by two stars (**))”.
Consider `CCc1cc(-c2cc(=O)n3cc(N4CCN(CCO)[C@H](C)C4)ccc3n2)cn2cc(C)nc12` [Compound 649, 2-(8-ethyl-2-methylimidazo[1,2-a]pyridin-6-yl)-7-[(3R)-4-(2-hydroxyethyl)-3-methylpiperazin-1-yl]-4H-pyrido[1,2-a]pyrimidin-4-one], for which the melting point fell in the range of 217 to 220 °C. In data set [1], the EC (1.5-fold increase) was less than 0.1 µM. Also, in data set [2], the “EC1.5x for Smn protein expression” value is “**** (an EC1.5x≤0.3 μM is indicated by four stars (****))” and the “maximum fold (Fold) increase” value is on record as “***** (a fold increase >1.65 is indicated by five stars (*****))”.
For `Cc1nc2ccc(-c3cc(=O)n4cc(C5=CCN(C)CC5)ccc4n3)cc2s1` [Compound 392, 2-(2-methyl-1,3-benzothiazol-6-yl)-7-(1-methyl-1,2,3,6-tetrahydropyridin-4-yl)-4H-pyrido[1,2-a]pyrimidin-4-one], the melting point is 170 to 172 °C. Moreover, in data set [1], the EC (1.5-fold increase) was 0.1 to 0.3 µM. In addition, the “maximum fold (Fold) increase” value in data set [2] is “*** (a fold increase between >1.35 and ≤1.5 is indicated by three stars (***))”.
`Cc1cn2nc(-c3cc(=O)n4cc(N5CCC(N(C)C)CC5)ccc4n3)cc2cn1` [Compound 468, 7-[4-(dimethylamino)piperidin-1-yl]-2-(6-methylpyrazolo[1,5-a]pyrazin-2-yl)-4H-pyrido[1,2-a]pyrimidin-4-one] registered a melting point of 240 to 242 °C. For the same compound, in data set [1], the EC (1.5-fold increase) is less than 0.1 µM. Besides, in data set [2], the “EC1.5x for Smn protein expression” value is “*** (an EC1.5× between >0.3 μM and ≤1 μM is indicated by three stars (***))”; the “maximum fold (Fold) increase” value is “**** (a fold increase between >1.5 and ≤1.65 is indicated by four stars (****))”.
As to `CCCN1CCN(c2ccc3nc(-c4ccc(OC)c(OC)c4)cc(=O)n3c2)CC1` [Compound 15, 2-(3,4-dimethoxyphenyl)-7-(4-propylpiperazin-1-yl)-4H-pyrido[1,2-a]pyrimidin-4-one], the melting point lay in the range of 185 to 189 °C. In addition, in data set [1], the EC (1.5-fold increase) is 1 to 3 µM. Further, the “maximum fold (Fold) increase” value in data set [2] is “*** (a fold increase between >1.35 and ≤1.5 is indicated by three stars (***))”.
